Results reported in the supplement of paper PMC10307832.

Legend:
Test in all cases: relative viability (nuclei count vs DMSO), 5 days (fraction); higher = more cells survive
NCI-H1437 = system: NCI-H1437
Method in brief: (§1)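 Lung cancer cell lines were seeded in 1536-well plates and dosed by pin tool the next day, with either a single drug or a fixed anchor-drug dose combined with five library-drug doses (not always all listed) spaced in √10 steps. Five days later, one step fixed the cells and stained their nuclei (final 0.05% Triton X-100, 1% formaldehyde, 1 ug/ml Hoechst), and nuclei were counted on 4× images. Relative viability is the nuclei count in treated wells divided by the count in vehicle wells, and each value is the median of duplicate plates.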

HARA = system: HARA
Method in brief: as §1

NCI-H1792 = system: NCI-H1792
Method in brief: as §1

NCI-H522 = system: NCI-H522
Method in brief: as §1

COR-L23 = system: COR-L23
Method in brief: as §1

NCI-H520 = system: NCI-H520
Method in brief: as §1

NCI-H441 = system: NCI-H441
Method in brief: as §1

LCLC-103H = system: LCLC-103H
Method in brief: as §1

HCC-15 = system: HCC-15
Method in brief: as §1

NCI-H1666 = system: NCI-H1666
Method in brief: as §1

NCI-H650 = system: NCI-H650
Method in brief: as §1

LK-2 = system: LK-2
Method in brief: as §1

HCC-827 = system: HCC-827
Method in brief: as §1

SW 900 = system: SW 900
Method in brief: as §1

NCI-H1975 = system: NCI-H1975
Method in brief: as §1

EKVX = system: EKVX
Method in brief: as §1

NCI-H596 = system: NCI-H596
Method in brief: as §1

HCC-44 = system: HCC-44
Method in brief: as §1

A-427 = system: A-427
Method in brief: as §1

NCI-H838 = system: NCI-H838
Method in brief: as §1

COR-L 105 = system: COR-L 105
Method in brief: as §1

NCI-H23 = system: NCI-H23
Method in brief: as §1

201T = system: 201T
Method in brief: as §1

SK-MES-1 = system: SK-MES-1
Method in brief: as §1

C[C@@H]1CN(CC(=O)Nc2ccc3c(c2)Cc2cccc(-c4cc(=O)cc(N5CCOCC5)o4)c2S3)C[C@H](C)O1 + O=C(c1cc(Cc2n[nH]c(=O)c3ccccc23)ccc1F)N1CCN(C(=O)C2CC2)CC1 [Olaparib] (partner 8 µM)
relative viability (NCI-H1437; first compound 0.04 µM): 0.613 | relative viability (NCI-H1437; first compound 0.1265 µM): 0.635 | relative viability (NCI-H1437; first compound 0.4 µM): 0.598 | relative viability (NCI-H1437; first compound 4 µM): 0.352 | relative viability (HARA; first compound 0.04 µM): 0.932 | relative viability (HARA; first compound 0.1265 µM): 0.779 | relative viability (HARA; first compound 0.4 µM): 0.87 | relative viability (HARA; first compound 4 µM): 0.22 | relative viability (NCI-H1792; first compound 0.04 µM): 0.715 | relative viability (NCI-H1792; first compound 0.1265 µM): 0.407 | relative viability (NCI-H1792; first compound 0.4 µM): 0.315 | relative viability (NCI-H1792; first compound 4 µM): 0.102 | relative viability (NCI-H522; first compound 0.04 µM): 0.612 | relative viability (NCI-H522; first compound 0.1265 µM): 0.667 | relative viability (NCI-H522; first compound 0.4 µM): 0.576 | relative viability (NCI-H522; first compound 4 µM): 0.614 | relative viability (COR-L23; first compound 0.04 µM): 0.39 | relative viability (COR-L23; first compound 0.1265 µM): 0.329 | relative viability (COR-L23; first compound 0.4 µM): 0.323 | relative viability (COR-L23; first compound 4 µM): 0.185 | relative viability (NCI-H520; first compound 0.04 µM): 0.43 | relative viability (NCI-H520; first compound 0.1265 µM): 0.308 | relative viability (NCI-H520; first compound 0.4 µM): 0.31 | relative viability (NCI-H520; first compound 4 µM): 0.202 | relative viability (NCI-H441; first compound 0.04 µM): 0.636 | relative viability (NCI-H441; first compound 0.1265 µM): 0.551 | relative viability (NCI-H441; first compound 0.4 µM): 0.507 | relative viability (NCI-H441; first compound 4 µM): 0.141 | relative viability (LCLC-103H; first compound 0.04 µM): 0.71 | relative viability (LCLC-103H; first compound 0.1265 µM): 0.739 | relative viability (LCLC-103H; first compound 0.4 µM): 0.771 | relative viability (LCLC-103H; first compound 4 µM): 0.722 | relative viability (HCC-15; first compound 0.04 µM): 0.722 | relative viability (HCC-15; first compound 0.1265 µM): 0.658 | relative viability (HCC-15; first compound 0.4 µM): 0.586 | relative viability (HCC-15; first compound 4 µM): 0.286 | relative viability (NCI-H1666; first compound 0.04 µM): 0.713 | relative viability (NCI-H1666; first compound 0.1265 µM): 0.767 | relative viability (NCI-H1666; first compound 0.4 µM): 0.659 | relative viability (NCI-H1666; first compound 4 µM): 0.468 | relative viability (NCI-H650; first compound 0.04 µM): 0.436 | relative viability (NCI-H650; first compound 0.1265 µM): 0.48 | relative viability (NCI-H650; first compound 0.4 µM): 0.438 | relative viability (NCI-H650; first compound 4 µM): 0.258 | relative viability (LK-2; first compound 0.04 µM): 0.852 | relative viability (LK-2; first compound 0.1265 µM): 0.724 | relative viability (LK-2; first compound 0.4 µM): 0.575 | relative viability (LK-2; first compound 4 µM): 0.321 | relative viability (HCC-827; first compound 0.04 µM): 0.674 | relative viability (HCC-827; first compound 0.1265 µM): 0.653 | relative viability (HCC-827; first compound 0.4 µM): 0.678 | relative viability (HCC-827; first compound 4 µM): 0.438 | relative viability (SW 900; first compound 0.04 µM): 0.869 | relative viability (SW 900; first compound 0.1265 µM): 0.993 | relative viability (SW 900; first compound 0.4 µM): 0.815 | relative viability (SW 900; first compound 4 µM): 0.445 | relative viability (NCI-H1975; first compound 0.04 µM): 0.78 | relative viability (NCI-H1975; first compound 0.1265 µM): 0.748 | relative viability (NCI-H1975; first compound 0.4 µM): 0.713 | relative viability (NCI-H1975; first compound 4 µM): 0.274 | relative viability (EKVX; first compound 0.04 µM): 0.862 | relative viability (EKVX; first compound 0.1265 µM): 0.921 | relative viability (EKVX; first compound 0.4 µM): 0.914 | relative viability (EKVX; first compound 4 µM): 0.399 | relative viability (NCI-H596; first compound 0.04 µM): 0.601 | relative viability (NCI-H596; first compound 0.1265 µM): 0.624 | relative viability (NCI-H596; first compound 0.4 µM): 0.641 | relative viability (NCI-H596; first compound 4 µM): 0.486 | relative viability (HCC-44; first compound 0.04 µM): 0.94 | relative viability (HCC-44; first compound 0.1265 µM): 1.02 | relative viability (HCC-44; first compound 0.4 µM): 0.955 | relative viability (HCC-44; first compound 4 µM): 0.969 | relative viability (A-427; first compound 0.04 µM): 0.658 | relative viability (A-427; first compound 0.1265 µM): 0.734 | relative viability (A-427; first compound 0.4 µM): 0.731 | relative viability (A-427; first compound 4 µM): 0.669 | relative viability (NCI-H838; first compound 0.04 µM): 0.746 | relative viability (NCI-H838; first compound 0.1265 µM): 0.685 | relative viability (NCI-H838; first compound 0.4 µM): 0.739 | relative viability (NCI-H838; first compound 4 µM): 0.323 | relative viability (COR-L 105; first compound 0.04 µM): 0.772 | relative viability (COR-L 105; first compound 0.1265 µM): 0.786 | relative viability (COR-L 105; first compound 0.4 µM): 0.822 | relative viability (COR-L 105; first compound 4 µM): 0.647 | relative viability (NCI-H23; first compound 0.04 µM): 0.352 | relative viability (NCI-H23; first compound 0.1265 µM): 0.317 | relative viability (NCI-H23; first compound 0.4 µM): 0.264 | relative viability (NCI-H23; first compound 4 µM): 0.227 | relative viability (201T; first compound 0.04 µM): 0.839 | relative viability (201T; first compound 0.1265 µM): 0.816 | relative viability (201T; first compound 0.4 µM): 0.793 | relative viability (201T; first compound 4 µM): 0.783 | relative viability (SK-MES-1; first compound 0.04 µM): 0.78 | relative viability (SK-MES-1; first compound 0.1265 µM): 0.721 | relative viability (SK-MES-1; first compound 0.4 µM): 0.686 | relative viability (SK-MES-1; first compound 4 µM): 0.252
